In US8623859B2, “Bradykinin B1 antagonists” (Evotec AG, priority 2008, dated 2014):
Where a name gives a salt, the structure may show the parent alone.

Target: T1, human B1 (Homo sapiens, UniProt P46663)
T1 construct: host or cells: CHO-K1
T1 sequence (P46663 1-353): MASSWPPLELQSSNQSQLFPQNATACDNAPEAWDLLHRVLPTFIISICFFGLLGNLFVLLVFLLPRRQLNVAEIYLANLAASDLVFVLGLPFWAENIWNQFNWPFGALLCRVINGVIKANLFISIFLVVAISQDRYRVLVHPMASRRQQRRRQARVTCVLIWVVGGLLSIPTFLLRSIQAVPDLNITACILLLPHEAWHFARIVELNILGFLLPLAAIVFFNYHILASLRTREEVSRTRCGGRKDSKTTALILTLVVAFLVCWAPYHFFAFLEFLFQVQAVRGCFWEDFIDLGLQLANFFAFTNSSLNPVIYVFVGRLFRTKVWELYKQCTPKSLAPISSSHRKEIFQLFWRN
Test: Calcium flux assay for Bradykinin B1 antagonist, CHO-K1 cell line expressing human B1
Format: cell-based
Settings: CHO-K1 cells expressing human B1, agonist Lys-(Des-Arg)-Bradykinin, read-out: Potency (IC50 value against human B1)
Outline: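 CHO-K1 cells expressing human B1, loaded with 5 μM Fluo-4AM (2 h, 37° C) in HEPES buffer pH 7.4 with probenecid and 0.1% BSA, were preincubated 30 min at 25° C with compound (8 concentrations, triplicate, 1% DMSO) before B1 agonist addition. Ca2+ fluorescence monitored at 538 nm; background-normalized integrated values plotted against log antagonist concentration.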

## COc1cc(C)c(S(=O)(=O)N(Cc2nc(C(=O)N3CCN(CC4CCN(C)CC4)CC3)co2)C2CC2)c(C)c1 [Ex 191, N-Cyclopropyl-4-methoxy-2,6-dimethyl-N-{[4-({4-[(1-methylpiperidin-4-yl)methyl]piperazin-1-yl}carbonyl)-1,3-oxazol-2-yl]methyl}benzenesulfonamide trifluoroacetate trifluoroacetate]
  IC50: < 10 nM

## COc1cc(C)c(S(=O)(=O)N(C)Cc2cc(C(=O)NCCc3ccc(C4=NCCN4)cc3)c(C)o2)c(C)c1 [Ex 61, N-{2-[4-(4,5-dihydro-1H-imidazol-2-yl)phenyl]ethyl}-5-({[(4-methoxy-2,6-dimethylphenyl)sulfonyl](methyl)amino}methyl)-2-methylfuran-3-carboxamide]
  IC50: 10 to 100 nM

## COc1cc(C)c(S(=O)(=O)N(C)Cc2nnc(C(=O)N3CCN(CCCN4CCCC4)CC3)s2)c(C)c1 [Ex 327, 4-Methoxy-N,2,6-trimethyl-N-[(5-{[4-(3-pyrrolidin-1-ylpropyl)piperazin-1-yl]carbonyl}-1,3,4-thiadiazol-2-yl)methyl]benzenesulfonamide]
  IC50: 100 to 1000 nM

## CCN1CCN(CCCNC(=O)c2coc(CN(C3CC3)S(=O)(=O)c3c(C)cc(OC)cc3C)n2)CC1 [Ex 242, 2-({Cyclopropyl[(4-methoxy-2,6-dimethylphenyl)sulfonyl]amino}methyl)-N-[3-(4-ethylpiperazin-1-yl)propyl]-1,3-oxazole-4-carboxamide trifluoroacetate]
  IC50: 10 to 100 nM

## COc1cc(C)c(S(=O)(=O)N(C)Cc2nc(C(=O)N(C)CCc3ccc(C4=NCCN4)cc3)cs2)c(C)c1 [Ex 80, N-{2-[4-(4,5-dihydro-1H-imidazol-2-yl)phenyl]ethyl}-2-({[(4-methoxy-2,6-dimethylphenyl)sulfonyl](methyl)amino}methyl)-N-methyl-1,3-thiazole-4-carboxamide]
  IC50: 100 to 1000 nM

## COc1cc(C)c(S(=O)(=O)N(C)Cc2nnc(C(=O)N3CCN(Cc4c[nH]c(C)n4)CC3)o2)c(C)c1 [Ex 292, 4-Methoxy-N,2,6-trimethyl-N-{[5-({4-[(2-methyl-1H-imidazol-4-yl)methyl]piperazin-1-yl}carbonyl)-1,3,4-oxadiazol-2-yl]methyl}benzenesulfonamide]
  IC50: < 10 nM

## COc1cc(C)c(S(=O)(=O)N(Cc2cc(C(=O)N3CCN(CC4CCCN(C)C4)CC3)co2)C2CC2)c(C)c1 (centres unmarked) [Ex 106, N-Cyclopropyl-4-methoxy-2,6-dimethyl-N-{[4-({4-[(1-methylpiperidin-3-yl)methyl]piperazin-1-yl}carbonyl)furan-2-yl]methyl}benzenesulfonamide trifluoroacetate]
  IC50: 10 to 100 nM

## COc1cc(C)c(S(=O)(=O)N(C)Cc2noc(C(=O)N3CCC(CCN4CCCC4)CC3)n2)c(C)c1 [Ex 310, 4-Methoxy-N,2,6-trimethyl-N-[(5-{[4-(2-pyrrolidin-1-ylethyl)piperidin-1-yl]carbonyl}-1,2,4-oxadiazol-3-yl)methyl]benzenesulfonamide]
  IC50: < 10 nM

## COc1cc(C)c(S(=O)(=O)N(Cc2nc(C(=O)N3CCN(CCc4ccccn4)CC3)co2)C2CC2)c(C)c1 [Ex 228, N-Cyclopropyl-4-methoxy-2,6-dimethyl-N-[(4-{[4-(2-pyridin-2-ylethyl)piperazin-1-yl]carbonyl}-1,3-oxazol-2-yl)methyl]benzenesulfonamide trifluoroacetate]
  IC50: 10 to 100 nM

## COc1cc(C)c(S(=O)(=O)N(C)Cc2nc(C(=O)N(C)Cc3cccc(CN4CCCC4)c3)no2)c(C)c1 [Ex 324, 5-({[(4-Methoxy-2,6-dimethylphenyl)sulfonyl](methyl)amino}methyl)-N-methyl-N-[3-(pyrrolidin-1-ylmethyl)benzyl]-1,2,4-oxadiazole-3-carboxamide trifluoroacetate]
  IC50: 10 to 100 nM

## COc1cc(C)c(S(=O)(=O)N(C)Cc2nc(C(=O)N(C)Cc3ccc(C4=NCCN4)cc3)cs2)c(C)c1 [Ex 81, N-[4-(4,5-dihydro-1H-imidazol-2-yl)benzyl]-2-({[(4-methoxy-2,6-dimethylphenyl)sulfonyl](methyl)amino}methyl)-N-methyl-1,3-thiazole-4-carboxamide]
  IC50: 100 to 1000 nM

## COc1cc(C)c(S(=O)(=O)N(Cc2cc(C(=O)NCc3ccc(CN4CCCC4)c(F)c3)co2)C2CC2)c(C)c1 [Ex 154, 5-({Cyclopropyl[(4-methoxy-2,6-dimethylphenyl)sulfonyl]amino}methyl)-N-[3-fluoro-4-(pyrrolidin-1-ylmethyl)benzyl]furan-3-carboxamide trifluoroacetate]
  IC50: 100 to 1000 nM

## COc1cc(C)c(S(=O)(=O)N(C)Cc2cc(C(=O)N(C)Cc3ccc(C(C)N4CCCC4)cc3)co2)c(C)c1 (centres unmarked) [Ex 88, 5-({[(4-Methoxy-2,6-dimethylphenyl)sulfonyl](methyl)amino}methyl)-N-methyl-N-[4-(1-pyrrolidin-1-ylethyl)benzyl]furan-3-carboxamide trifluoroacetate]
  IC50: 100 to 1000 nM

## COc1cc(C)c(S(=O)(=O)N(Cc2nc(C(=O)N3CCC(O)(CN4CCOCC4)CC3)co2)C2CC2)c(C)c1 [Ex 224, N-Cyclopropyl-N-[(4-{[4-hydroxy-4-(morpholin-4-ylmethyl)piperidin-1-yl]carbonyl}-1,3-oxazol-2-yl)methyl]-4-methoxy-2,6-dimethylbenzenesulfonamide trifluoroacetate]
  IC50: 10 to 100 nM

## COc1cc(C)c(S(=O)(=O)N(C)Cc2cc(C(=O)NCCc3ccc(C4=NCC(C)(C)N4)cc3)co2)c(C)c1 [Ex 94, N-{2-[4-(5,5-Dimethyl-4,5-dihydro-1H-imidazol-2-yl)phenyl]ethyl}-5-({[(4-methoxy-2,6-dimethylphenyl)sulfonyl](methyl)amino}methyl)furan-3-carboxamide trifluoroacetate]
  IC50: < 10 nM

## COc1cc(C)c(S(=O)(=O)N(C)Cc2nnc(C(=O)N(C)Cc3ccc(CN4CCC(OC)C4)cc3)o2)c(C)c1 (centres unmarked) [Ex 282, 5-({[(4-Methoxy-2,6-dimethylphenyl)sulfonyl](methyl)amino}methyl)-N-{4-[(3-methoxypyrrolidin-1-yl)methyl]benzyl}-N-methyl-1,3,4-oxadiazole-2-carboxamide]
  IC50: 100 to 1000 nM

## COc1cc(C)c(S(=O)(=O)N(Cc2cc(C(=O)NCCc3ccc(C4=NCCN4)cc3)co2)C2CC2)c(C)c1 [Ex 52, 5-({Cyclopropyl[(4-methoxy-2,6-dimethylphenyl)sulfonyl]amino}methyl)-N-{2-[4-(4,5-dihydro-1H-imidazol-2-yl)phenyl]ethyl}furan-3-carboxamide]
  IC50: < 10 nM

## CCc1cc(Br)ccc1S(=O)(=O)N(C)Cc1cc(C(=O)N2CCCN(CCCN3CCCC3)CC2)co1 [Ex 15, 4-bromo-2-ethyl-N-methyl-N-[(4-{[4-(3-pyrrolidin-1-ylpropyl)-1,4-diazepan-1-yl]carbonyl}furan-2-yl)methyl]benzenesulfonamide]
  IC50: 10 to 100 nM

## COc1cc(C)c(S(=O)(=O)N(Cc2nc(C(=O)N3CCN(CC4CCNCC4)CC3)co2)C2CC2)c(C)c1 [Ex 230, N-Cyclopropyl-4-methoxy-2,6-dimethyl-N-[(4-{[4-(piperidin-4-ylmethyl)piperazin-1-yl]carbonyl}-1,3-oxazol-2-yl)methyl]benzenesulfonamide trifluoroacetate]
  IC50: < 10 nM

## COc1cc(C)c(S(=O)(=O)N(C)Cc2cc(C(=O)N(C)Cc3ccc(CN4CCC(O)CC4)cc3)co2)c(C)c1 [Ex 126, N-{4-[(4-Hydroxypiperidin-1-yl)methyl]benzyl}-5-({[(4-methoxy-2,6-dimethylphenyl)sulfonyl](methyl)amino}methyl)-N-methylfuran-3-carboxamide]
  IC50: 10 to 100 nM
